From US20040067540A1, “Rapid method for screening compounds for in vivo activity” (priority 2003, published 2004)

System: p21^WAF1/Clp1 promoter
Assay: Hollow fiber p21^WAF1/Clp1 promoter-luciferase reporter assay: light emission from Fibers with H1299C2 cells retrieved from dosed mice
Type: in vivo, mouse (mouse (human H1299C2 cells in hollow fibers) H1299C2 cells in hollow fibers)
Conditions: H1299C2 cells in hollow fibers implanted s.c. in athymic nude mice; single intravenous dose 50, 25 or 12.5 mg/kg; Fibers retrieved 24 hours after dosing; p<0.01, one tailed Student t-test
Method: A human lung cancer cell line, H1299, is obtained from the American Type Culture Collection, ATCC, Rockville, Md.) and cultured in the RPMI 1640 medium supplemented with 10% heat-inactivated Fetal Bovine Serum (Life Technologies, Grand Island, N.Y.). Cells harvested at approx. 85% confluency are washed with ice cold phosphate buffered saline (PBS) and suspended in the ice cold PBS at a concentration of 2×10^7 cells/mL. One half of one mL of the cell suspension is used for transfection with 10 μg of p21^WAF1/Clp1 luciferase plasmid and NeotetR selectable marker. Transfection is performed by electroporation at […]. Cells are then plated in the above medium containing 0.4 mg/mL G-418 (Life Technologies, Grand Island, N.Y.). One colony is selected, diluted to one cell/well and a single clone is expanded to generate p21^WAF1/Clp1 promoter-luciferase stable cell line designated H1299C2. The cell line tests negative for Mycoplasma contamination (Rapid Detection System by Gen-Probe, Inc., San Diego, Calif.) and for Mouse Antibody Production (MA BioServices, Inc., Rockville, Md.).
The H1299C2 cell line is propagated and expanded for implantation in RPMI 1640 medium containing 10% heat-inactivated Fetal Bovine Serum (Life Technologies, Grand Island, N.Y.) in a cell culture incubator, at 37° C. with humidified atmosphere, containing 5% CO2. […]

SMILES	expression of the reporter gene (firefly luciferase) in vivo as judged by registered light emission from the Fibers
O=C(/C=C/c1ccc(CN(CCO)CCc2c[nH]c3ccccc23)cc1)NO [compound 1, N-hydroxy-3-[4-[[(2-hydroxyethyl)[2-(1H-indol-3-yl)-ethyl]-amino]methyl]phenyl]-2E-2-propenamide]	statistically significant (p<0.01, one tailed Student t-test) and reproducible expression of the reporter gene
Cc1[nH]c2ccccc2c1CCNCc1ccc(/C=C/C(=O)NO)cc1 [compound 2, N-hydroxy-3-[4-[[[2-(2-methyl-1H-indol-3-yl)-ethyl]-amino]methyl]phenyl]-2E-2-propenamide]	statistically significant (p<0.01, one tailed Student t-test) and reproducible expression of the reporter gene

System: various tumor cell lines
Assay: Present method: tumor cells in implanted encapsulation device, response to antitumor agents
Type: in vivo
Conditions: not given
Description: The present method can be utilized as a first line screen to test potential drug candidates for in vivo efficacy.

SMILES	activity when tested on various tumor cell lines with the present method
O=c1[nH]cc(F)c(=O)[nH]1 [5-fluorouracil]	significant activity
CC[C@@]1(O)C(=O)OCc2c1cc1n(c2=O)Cc2cc3ccccc3nc2-1 [camptothecin]	significant activity
N.N.[Cl][Pt][Cl] [cis-platinum]	significant activity
COc1cccc2c1C(=O)c1c(O)c3c(c(O)c1C2=O)C[C@@](O)(C(=O)CO)C[C@@H]3O[C@H]1C[C@H](N)[C@H](O)[C@H](C)O1 [doxorubicin]	significant activity
COc1cc([C@@H]2c3cc4c(cc3[C@@H](O[C@@H]3O[C@@H]5CO[C@@H](C)O[C@H]5[C@H](O)[C@H]3O)[C@H]3COC(=O)[C@H]23)OCO4)cc(OC)c1O [etoposide]	significant activity
CO[C@@]12[C@H](COC(N)=O)C3=C(C(=O)C(C)=C(N)C3=O)N1C[C@@H]1N[C@@H]12 [mitomycin C]	significant activity
O=C1c2c(O)ccc(O)c2C(=O)c2c(NCCNCCO)ccc(NCCNCCO)c21 [mitoxantrone]	significant activity
CC(=O)O[C@H]1C(=O)[C@@]2(C)[C@H]([C@H](OC(=O)c3ccccc3)[C@]3(O)C[C@H](OC(=O)[C@H](O)[C@@H](NC(=O)c4ccccc4)c4ccccc4)C(C)=C1C3(C)C)[C@]1(OC(C)=O)CO[C@@H]1C[C@@H]2O [paclitaxel]	significant activity
CC[C@]1(O)C[C@H]2CN(CCc3c([nH]c4ccccc34)[C@@](C(=O)OC)(c3cc4c(cc3OC)N(C=O)[C@H]3[C@@](O)(C(=O)OC)[C@H](OC(C)=O)[C@]5(CC)C=CCN6CC[C@]43[C@@H]65)C2)C1 [vincristine]	significant activity
